Data from patent US7462605B2, “Phosphoramidate compounds and methods of use” (Celmed Oncology (USA), Inc., priority 2002, dated 2008).

How the values were obtained:
H527 (Skin) normal cells = test: alamarBlue growth inhibition, H527; type: cell-based, human; settings: 120 hours
Experimental: (§1) Growth Inhibition Studies. Cells growing exponentially were transferred to 384-well flat bottom tissue culture plates. All cell types were plated at a density of 500 cells per well in 25 μL of complete medium (RPMI 1640+10% fetal bovine serum+antibiotics/antimycotics). After 24 hours (day 0), 25 μL of complete medium containing the experimental compounds over the dose range of 10^ñ3 to 10^ñ10 M were added in triplicate. […] 5 μL of the redox indicator, alamarBlue, was added to each well (10% v/v). After 4 hours incubation at 37° C., fluorescence was monitored at 535 nm excitation and 595 nm emission.
(§2) Concentration vs. relative fluorescence units (RFU) were plotted, and sigmoid curves were fit using the Hill equation.

[1] = system: HT1080 (Colon) tumor cells; test: alamarBlue growth inhibition, HT1080; type: cell-based, human; settings: 120 hours
Experimental: as §1, §2

HCTC (Colon) tumor cells = test: alamarBlue growth inhibition, HCTC; type: cell-based, human; settings: 120 hours
Experimental: as §1, §2

[2] = system: MDAMB361 (Breast) tumor cells; test: alamarBlue growth inhibition, MDAMB361; type: cell-based, human; settings: 120 hours
Experimental: as §1, §2

[3] = system: HEPG2 (Liver) tumor cells; test: alamarBlue growth inhibition, HEPG2; type: cell-based, human; settings: 120 hours
Experimental: as §1, §2

[4] = system: MCF7 TDX/1011 cells (MCF7 TDX selected for resistance to NB1011); test: alamarBlue cytotoxicity, MCF7 TDX/1011; type: cell-based, human
Experimental: as §1, §2
Reversal of Resistance. The origin and characteristics of the human breast cancer MCF7 TDX cell line have been previously described (Drake, et al. (1996)). Briefly, MCF-7 breast cancer cells were selected in vitro for resistance to Tomudex by continuous exposure to stepwise increases in TDX concentrations up to 2.0 μM. […] After a dramatic initial cell killing effect, resistant colonies emerged, and vigorously growing monolayers were formed. TS protein level and IC50 for 5-FU, TDX, and NB1011 were determined for the resultant MCF7 TDX/1011 cell line as described in above by western blot and the alamarBlue cytotoxicity assay, respectively.

H630 colon cancer cells = test: alamarBlue cytotoxicity, H630 parental; type: cell-based, human; settings: Drug Selection None, read-out: NB1011-IC50
Experimental: as §1, §2
(§3) Cells were grown and characterized as described above. TS expression level is relative to CCD18co, a normal colon epithelial cell line. Tritium release is background substracted as described in Methods. ND=Not detectable above background.

[5] = system: RKO colon cancer cells, TDX selection; test: alamarBlue cytotoxicity, RKO TDX-selected; type: cell-based, human; settings: Drug Selection TDX, read-out: NB1011-IC50
Experimental: as §1, §2, §3

[6] = system: collagen induced arthritis; test: Collagen induced arthritis in DBA/1 mice; type: in vivo, mouse; settings: vs saline-treated control; NB1011 2.5 mg per day intraperitoneal
Experimental: Arthritis was induced in male DBA/1 mice (8-10 weeks old) by intradermal injection of bovine type II collagen, purified in-house at the Kennedy Institute of Rheumatology as previously described (Miller, E. J. et al. (1972)). Collagen was administered in complete Freund's adjuvant (Difco, Detroit, Mich.). Onset of arthritis is expected to be variable. Arthritis onset is considered to occur on the day that swelling and/or erythema were observed. Clinical score is a composite of disease severity and the number of limbs affected, and is monitored daily from onset of disease and used as an assessment of disease progress. An example for scoring is: 0, Normal; 1, slight swelling with erythema; 2, pronounced swelling; 3, joint rigidity. In addition, the extent of paw swelling reflects the degree of edema in affected limbs.
NB1011 was administered daily by intraperitoneal administration at 2.5 mg total dose per day.
Following immunization with collagen, mice were maintained until a significant clinical score for disease progression was achieved (between 2.5 and 3.5). Mice were then treated with control saline injections, NB1011, or with anti-TNF antibody as a positive control. […] Paw swelling is an alternative measure of CIA disease severity.

[7] = system: CCD18co normal colon epithelial cells; test: Thymidine rescue, alamarBlue cytotoxicity; type: cell-based, human; settings: in the presence of 10 μM thymidine
Description: An additional approach was taken to understanding whether NB1011 might interfere with cell growth primarily by inactivating TS. This approach is based upon thymidine rescue of TS-blocked cells. […] For this reason, they survive only by scavenger mechanisms. One of the important scavenger mechanisms is utilization of extracellular thymidine. Thymidine incorporated by target cells can be converted to dTMP, usually by thymidine kinase, and thus continue DNA synthesis. Other pathways for use of exogenous thymidine have also been described If an important mechanism for NB1011 activity is via inhibition of endogenous TS, then the cytotoxicity should be relieved when thymidine is added to the cell culture media. For this experiment, a number of tumor cell lines were screened for their sensitivity to Tomudex and 5FdUrd, and ability to be rescued from these agents via thymidine supplementation. […] Experiments were carried out as described by (Patterson, et al. (1998)) with or without 10 μM thymidine, except that the alamarBlue assay was employed to determine cytotoxicity.

For “5-(2-Bromovinyl)-2′-deoxyuridine phenyl N-methoxy-L-alaninyl phosphoramidate [NB1011]”, the IC50 (H527 (Skin) normal cells) was 273 µM, the IC50 [1] was 449 µM and the IC50 (HCTC (Colon) tumor cells) was 280 µM. It also gave an IC50 [2] of 365 µM, an IC50 [3] of 704 µM and an IC50 [4] of 240 µM. The IC50 (H630 colon cancer cells) was 414 µM, the IC50 [5] was 28 µM and the “clinical score (disease suppression)” value [6] was “significant disease suppression”. The “paw swelling (disease suppression)” value [6] was “significant disease suppression” and the IC50 [7] was 223 µM.
